From paper PMC11027885, “Utilizing surface plasmon resonance as a novel method for monitoring in-vitro P-glycoprotein efflux” (Frontiers in biophysics, 2024)
Counter-ions that a name gives are not always drawn. Like-named read-outs stand apart in the source and are kept apart here.

Tests used:
[1] = target: mouse Pgp (Abcb1a, MDR3) (Mus musculus, UniProt P21447); assay: ATPase assay (Chifflet method), Pgp reconstituted in liposomes
[2] = target: Pgp (Abcb1a, MDR3) (Mus musculus, UniProt P21447); assay: in vitro; details: pH 7.4
Chain of Pgp (Abcb1a, MDR3) (P21447 whole entry): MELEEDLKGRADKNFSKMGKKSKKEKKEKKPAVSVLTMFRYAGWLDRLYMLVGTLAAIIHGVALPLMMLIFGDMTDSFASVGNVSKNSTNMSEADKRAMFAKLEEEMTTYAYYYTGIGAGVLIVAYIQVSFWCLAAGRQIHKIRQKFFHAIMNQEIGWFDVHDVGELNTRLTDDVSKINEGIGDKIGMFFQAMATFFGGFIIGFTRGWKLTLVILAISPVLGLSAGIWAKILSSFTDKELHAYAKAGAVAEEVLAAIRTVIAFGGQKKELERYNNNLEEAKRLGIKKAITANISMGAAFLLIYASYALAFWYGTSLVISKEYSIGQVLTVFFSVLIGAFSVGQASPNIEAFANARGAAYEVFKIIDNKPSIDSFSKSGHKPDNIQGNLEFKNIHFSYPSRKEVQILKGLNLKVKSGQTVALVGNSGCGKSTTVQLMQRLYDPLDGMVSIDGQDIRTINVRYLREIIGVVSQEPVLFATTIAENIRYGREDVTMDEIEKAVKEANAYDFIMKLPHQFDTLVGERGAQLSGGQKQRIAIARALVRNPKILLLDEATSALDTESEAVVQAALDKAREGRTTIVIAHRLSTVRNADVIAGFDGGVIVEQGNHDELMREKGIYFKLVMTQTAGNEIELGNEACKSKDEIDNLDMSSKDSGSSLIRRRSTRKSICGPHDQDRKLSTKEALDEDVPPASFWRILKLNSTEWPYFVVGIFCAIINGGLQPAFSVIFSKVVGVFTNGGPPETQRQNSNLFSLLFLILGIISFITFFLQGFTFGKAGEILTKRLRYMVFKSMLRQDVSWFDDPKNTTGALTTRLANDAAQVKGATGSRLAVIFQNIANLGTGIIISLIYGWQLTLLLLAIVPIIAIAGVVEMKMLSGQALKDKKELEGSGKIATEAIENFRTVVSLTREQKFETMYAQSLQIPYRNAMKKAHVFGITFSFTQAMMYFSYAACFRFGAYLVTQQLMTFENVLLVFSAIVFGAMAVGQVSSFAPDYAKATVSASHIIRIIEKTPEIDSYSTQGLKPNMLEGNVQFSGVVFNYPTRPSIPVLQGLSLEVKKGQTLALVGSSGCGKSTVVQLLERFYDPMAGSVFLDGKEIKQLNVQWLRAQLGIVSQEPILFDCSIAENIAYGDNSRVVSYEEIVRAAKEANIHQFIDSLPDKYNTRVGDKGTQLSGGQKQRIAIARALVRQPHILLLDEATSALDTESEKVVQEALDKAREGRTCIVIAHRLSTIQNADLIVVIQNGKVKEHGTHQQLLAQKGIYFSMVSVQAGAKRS

[3] = tested on: Pgp; set-up: method as in Doan et al. (2002); details: drug accumulation assay, MDR1-MDCKII cells; ref Doan et al. (2002); cited from earlier work

Chain of mouse Pgp (Abcb1a, MDR3) (P21447 whole entry): as above

CCC(=O)C(CC(C)N(C)C)(c1ccccc1)c1ccccc1 (stereo not drawn) [Methadone, methadone hydrochloride]
peak ATP hydrolysis rate [1]: approximately 800 nmolmin^−1mg^−1 | vmax of Pgp ATP hydrolysis [1]: 849 ± 45 nmolmin^−1mg^−1

[Na+].[Na+].[Na+].[O]=[V]([O-])([O-])[O-] [sodium orthovanadate, Sodium orthovanadate]
Pgp ATPase activity in presence of inhibitor ([1]; decline from basal 482 ± 50): approximately 100 nmolmin^−1mg^−1

C=C[C@H]1C[N@@]2CC[C@H]1C[C@@H]2[C@@H](O)c1ccnc2ccc(OC)cc12 [Quinidine]
Ki [1]: 131 ± 34 µM | peak ATP hydrolysis rate [1]: approximately 900 nmolmin^−1mg^−1

CNCCCN1c2ccccc2CCc2ccccc21 [Desipramine, desipramine hydrochloride]
koff [2]: 129 s⁻¹ | vmax of Pgp ATP hydrolysis ([1]; 50 nM Pgp in liposomes, curve fit (Eq. 2 monophasic, Eq. 3 biphasic)): 904 ± 65 nmolmin^−1mg^−1 | ATP hydrolysis activation profile ([1]; shape of ATPase kinetics curve): monophasic | Pgp efflux ratio (literature) [3]: 2
